Measurements from patent publication US8592435B2, “Nitrogen-containing six-membered aromatic ring derivatives and pharmaceutical products containing the same” (Daiichi Sankyo Company, Limited, priority 2007, dated 2013).
Counter-ions that a name gives are not always drawn.

Experiments:
hippocampal neurons = experiment: Test Example 1: ability to promote axonal outgrowth; type: cell-based, Wistar rats; conditions: Hippocampal neuron, 216 h, % of control, rat hippocampal neurons, day 9, read-out: Promotion of axonal outgrowth (%); for activity at 3 µM: Compound Conc. = 3 μM; for activity at 0.3 µM: Compound Conc. = 0.3 μM
Description: According to the method of M. P. Mattson [M. P. Mattson, Brain Res. Rev., 13, 179, (1988)], the hippocampal region was isolated from 18-day embryos of female Wistar rats and the neurons were dispersed using the papain dissociation system. Hippocampal neuron were suspended in 5% Nu-serum+B27 supplement+Neurobasal medium at 5×10^4 cells/well/2 mL. 2 mL of the cell suspension were inoculated on a poly-D-lysine-coated 36φ dish and the neuron were incubated at 37° C. in a 5% CO2 incubator.
On day 3 of the incubation period, 1 mL of the culture medium was replaced with 1 mL of 5% Nu-serum+B27 supplement+Neurobasal medium containing 2 mM AraC. Each test compound was added to the culture on day 3 and day 7 of the incubation period. On day 9, cells were fixed in a 4% paraformaldehyde solution. The nerve axons of the fixed cells were stained with the Rabbit anti-growth-associated protein-43 polyclonal antibody and the stained cells were quantified using Kurabo neuron outgrowth-quantication software.
The ability (%) of each test compound to promote axonal outgrowth was calculated from the following equation: The ability to promote axonal outgrowth (%)=[(measurement with a compound of interest)/(measurement of control)]×100
Example Compounds shown in Table 25 were used as test compounds and were each added at concentrations of 3 μM and 0.3 μM.
Since bFGF gives a measurement of about 120 in this test, 120 is used as the threshold to determine whether a given compound has the ability to promote axonal outgrowth

[1] = test system: mixture of human vascular endothelial cells and fibroblasts; experiment: Test Example 2: ability to promote angiogenesis (angiogenesis test kit KZ-1000); type: cell-based; conditions: Homo sapiens, 216 h, lumen length, % of control, day 9, read-out: Promotion of angiogenesis (%); for activity at 3 µM: Compound Conc. = 3 μM; for activity at 0.3 µM: Compound Conc. = 0.3 μM
Description: Using an angiogenesis test kit containing a mixture of human vascular endothelial cells and fibroblasts [KZ-1000; Kurabo], the ability of test compounds to promote angiogenesis was evaluated. Each test compound was added on days 1, 4, and 7 of the incubation period. On day 9, cells were immunostained with CD31 and photographed. Control cells were cultured under the same conditions, only without the addition of a test compound, and photographed.
The lumen length of the blood vessel was quantified from the obtained images using an angiogenesis-quantification software. The ability (%) of each test compound to promote angiogenesis was calculated from the following equation: The ability to promote angiogenesis (%)=[(measurement with a compound of interest)/(measurement of control)]×100
Example Compounds shown in Table 26 were used as test compounds.
Since bFGF gives a measurement of about 120 in this test, 120 is used as the threshold to determine whether a given compound has the ability to promote angiogenesis.

Structure (SMILES)	activity at 3 µM (hippocampal neurons) [%]	activity at 0.3 µM (hippocampal neurons) [%]	activity at 3 µM [1] [%]	activity at 0.3 µM [1] [%]
Cc1nc(NCC(=O)N(C)C2CCN(Cc3ccccc3)CC2)nc(C)c1N [Compound 63, 2-(5-amino-4,6-dimethylpyrimidine-2-ylamino)-N-(1-benzylpiperidine-4-yl)-N-methylacetamide]	186			
Cc1nc(OCC(=O)N(C)C2CCN(Cc3ccc(C(N)=O)cc3)CC2)nc(C)c1N [Compound 64, 4-((4-(2-(5-amino-4,6-dimethylpyrimidine-2-yloxy)-N-methylacetamide)piperidine-1-yl)methyl)benzamide]		120	177	
Cc1nc(OCC(=O)N(C)C2CCN(Cc3ccc(C(F)(F)F)cc3)CC2)nc(C)c1N [Compound 69, 2-(5-amino-4,6-dimethylpyrimidine-2-yloxy)-N-methyl-N-(1-(4-(trifluoromethyl)benzyl)piperidine-4-yl)acetamide]		172		161
Cc1nc(OCC(=O)N(C)C2CCN(Cc3ccc(Cl)cc3)CC2)nc(C)c1N [Compound 72, 2-(5-amino-4,6-dimethylpyrimidine-2-yloxy)-N-(1-(4-chlorobenzyl)piperidine-4-yl)-N-methylacetamide]	141		142	
Cc1nc(OCC(=O)N(C)C2CCN(CC(C)C)CC2)nc(C)c1N [Compound 73, 2-(5-amino-4,6-dimethylpyrimidine-2-yloxy)-N-(1-isobutylpiperidine-4-yl)-N-methylacetamide]	131		139	
Cc1nc(OCC(=O)N(C)C2CCN(CCc3ccccc3)CC2)nc(C)c1N [Compound 75, 2-(5-amino-4,6-dimethylpyrimidine-2-yloxy)-N-methyl-N-(1-phenetylpiperidine-4-yl)acetamide]	125		150	
Cc1nc(OCC(=O)N(C)C2CCN(C(=O)C3CCCCC3)CC2)nc(C)c1N [Compound 76, 2-(5-amino-4,6-dimethylpyrimidine-2-yloxy)-N-(1-(cyclohexanecarbonyl)piperidine-4-yl)-N-methylacetamide hydrochloride]	123		149	
CC(=O)N1CCC(N(C)C(=O)COc2nc(C)c(N)c(C)n2)CC1 [Compound 77, N-(1-acetylpiperidine-4-yl)-2-(5-amino-4,6-dimethylpyrimidine-2-yloxy)-N-methylacetamide hydrochloride]	135		149	
Cc1nc(OCC(=O)N(C)C2CCN(S(=O)(=O)c3ccccc3)CC2)nc(C)c1N [Compound 78, 2-(5-amino-4,6-dimethylpyrimidine-2-yloxy)-N-methyl-N-(1-(phenylsulfonyl)piperidine-4-yl)acetamide]	130		144	
Cc1nc(OCC(=O)N(C)C2CCN(C3CCCCC3)CC2)nc(C)c1N [Compound 79, 2-(5-amino-4,6-dimethylpyrimidine-2-yloxy)-N-(1-cyclohexylpiperidine-4-yl)-N-methylacetamide]	123		133	
Cc1nc(OCC(=O)N(C)C2CCN(C(=O)N3CCCCC3)CC2)nc(C)c1N [Compound 80, 2-(5-amino-4,6-dimethylpyrimidine-2-yloxy)-N-methyl-N-(1-(piperidine-1-carbonyl)piperidine-4-yl)acetamide]	129			116
Cc1ccccc1CN1CCC(N(C)C(=O)COc2nc(C)c(N)c(C)n2)CC1 [Compound 81, 2-(5-amino-4,6-dimethylpyrimidine-2-yloxy)-N-methyl-N-(1-(2-methylbenzyl)piperidine-4-yl)acetamide]	115		126	
Cc1nc(OCC(=O)N(C)C2CCN(c3ccccc3)CC2)nc(C)c1N [Compound 82, 2-(5-amino-4,6-dimethylpyrimidine-2-yloxy)-N-methyl-N-(1-phenylpiperidine-4-yl)acetamide]	154		130	
COc1cccc(CN2CCC(N(C)C(=O)COc3nc(C)c(N)c(C)n3)CC2)c1 [Compound 88, 2-(5-amino-4,6-dimethylpyrimidine-2-yloxy)-N-(1-(3-methoxybenzyl)piperidine-4-yl)-N-methylacetamide hydrochloride]		142	122	
Cc1nc(OCC(=O)N(C)C2CCN(Cc3ccc(-c4ccccc4)cc3)CC2)nc(C)c1N [Compound 93, 2-(5-amino-4,6-dimethylpyrimidine-2-yloxy)-N-(1-(biphenyl-4-ylmethyl)piperidine-4-yl)-N-methylacetamide hydrochloride]	143		138	
Cc1nc(OCC(=O)N(C)C2CCNCC2)nc(C)c1N [Compound 94, 2-(5-amino-4,6-dimethylpyrimidine-2-yloxy)-N-methyl-N-(piperidine-4-yl)acetamide]	122			
Cc1cc(C)nc(OCC(=O)N(C)C2CCN(Cc3ccccc3)CC2)n1 [Compound 95, N-(1-benzylpiperidine-4-yl)-2-(4,6-dimethylpyrimidine-2-yloxy)-N-methylacetamide hydrochloride]	201		133	
Cc1nc(=O)n(CC(=O)N(C)C2CCN(Cc3ccccc3)CC2)c(C)c1N [Compound 97, 2-(5-amino-4,6-dimethyl-2-oxopyrimidine-1(2H)-yl)-N-(1-benzylpiperidine-4-yl)-N-methylacetamide]	127		134	
Cc1nc(OC(C)C(=O)N(C)C2CCN(CC3CC3)CC2)nc(C)c1N (stereo not shown) [Compound 98, 2-(5-amino-4,6-dimethylpyrimidine-2-yloxy)-N-(1-(cyclopropylmethyl)piperidine-4-yl)-N-methylpropanamide]	130			129
Cc1nc(OCC(=O)NC2CCN(CC3CC3)CC2)nc(C)c1N [Compound 101, 2-(5-amino-4,6-dimethylpyrimidine-2-yloxy)-N-(1-(cyclopropylmethyl)piperidine-4-yl)acetamide]	193			
CC(C)c1nc(OCC(=O)N(C)C2CCN(Cc3ccccc3)CC2)nc(C(C)C)c1N [Compound 104, 2-(5-amino-4,6-diisopropylpyrimidine-2-yloxy)-N-(1-benzylpiperidine-4-yl)-N-methylacetamide]		134		
Cc1cnc(Cl)nc1OC(C)(C)C(=O)N(C)C1CCN(Cc2ccccc2)CC1 [Compound 112, N-(1-benzylpiperidine-4-yl)-2-(2-chloro-5-methylpyrimidine-4-yloxy)-N,2-dimethylpropanamide maleate]	126			
Cc1nc(N)nc(C)c1OCC(=O)N(C)C1CCN(Cc2ccccc2)CC1 [Compound 113, 2-(2-amino-4,6-dimethylpyrimidine-5-yloxy)-N-(1-benzylpiperidine-4-yl)-N-methylacetamide]	144			
CN(C(=O)COc1cncc(Cl)c1)C1CCN(Cc2ccccc2)CC1 [Compound 125, N-(1-benzylpiperidine-4-yl)-2-(5-chloropyridine-3-yloxy)-N-methylacetamide hydrochloride]		173		
CN(C(=O)COc1cncc(Cl)c1)C1CCN(CC2CC2)CC1 [Compound 126, 2-(5-chloropyridine-3-yloxy)-N-(1-(cyclopropylmethyl)piperidine-4-yl)-N-methylacetamide hydrochloride]	167			
CN(C(=O)COc1cncc(Cl)n1)C1CCN(Cc2ccccc2)CC1 [Compound 129, N-(1-benzylpiperidine-4-yl)-2-(6-chloropyrazine-2-yloxy)-N-methylacetamide hydrochloride]	147			
O=C(COc1ccc(Cl)nn1)N(C1CC1)C1CCN(Cc2ccccc2)CC1 [Compound 138, N-(1-benzylpiperidine-4-yl)-2-(6-chloropyridazine-3-yloxy)-N-cyclopropylacetamide]	151			
CN(C(=O)CNc1c(Cl)cnnc1Cl)C1CCN(Cc2ccccc2)CC1 [Compound 139, N-(1-benzylpiperidine-4-yl)-2-(3,5-dichloropyridazine-4-ylamino)-N-methylacetamide]	143			
COc1cnnc(Cl)c1NCC(=O)N(C)C1CCN(Cc2ccccc2)CC1 [Compound 140, N-(1-benzylpiperidine-4-yl)-2-(3-chloro-5-methoxypyridazine-4-ylamino)-N-methylacetamide]		128		
